Measured values taken from ChEMBL document CHEMBL4190182 (Medchemcomm, 2016).
pKi: −log10 of the molar value.

Key:
[1] = biological target: T1, Kappa-type opioid receptor (Cavia porcellus, UniProt P41144); assay: Displacement of [3H]U-69,593 from kappa opioid receptor in guinea pig brain membranes by scintillation counting analysis; format: cell membranes, Membrane
[2] = biological target: Delta-type opioid receptor (Rattus norvegicus, UniProt P33533); assay: Displacement of [3H]DPDPE from delta opioid receptor in Sprague-Dawley rat brain membranes after 120 mins by scintillation counting analysis; format: cell membranes, Membrane
Mu-type opioid receptor = Mu-type opioid receptor (Cavia porcellus, UniProt P97266); assay: Displacement of [3H]DAMGO from mu opioid receptor in guinea pig brain membranes after 120 mins by scintillation counting analysis; format: cell membranes, Membrane
[3] = biological target: T2, Sigma intracellular receptor 2 (Rattus norvegicus, UniProt Q5U3Y7); assay: Displacement of [3H]DTG from sigma2 receptor in Sprague-Dawley rat liver membranes after 120 mins by scintillation counting analysis; format: cell membranes, Membrane
T2 sequence (Q5U3Y7 whole entry): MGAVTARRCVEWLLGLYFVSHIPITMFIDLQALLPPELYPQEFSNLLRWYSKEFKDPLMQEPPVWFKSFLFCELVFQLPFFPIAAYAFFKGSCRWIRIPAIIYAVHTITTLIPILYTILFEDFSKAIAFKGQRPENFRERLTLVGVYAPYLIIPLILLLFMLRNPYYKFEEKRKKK

[4] = biological target: Sigma non-opioid intracellular receptor 1 (Cavia porcellus, UniProt Q60492); assay: Displacement of [3H]-(+)-Pentazocine from sigma1 receptor in guinea pig brain cortex membranes after 120 mins by scintillation counting analysis; format: cell membranes
[5] = biological target: T1, Kappa-type opioid receptor; assay: Displacement of [3H]U-69,593 from kappa opioid receptor in guinea pig brain membranes after 120 mins by scintillation counting analysis; format: cell membranes, Membrane
[6] = biological target: Kappa-type opioid receptor (Homo sapiens) (UniProt P41145); assay: Agonist activity at kappa opioid receptor in HEK293 cells at 1 uM after 30 mins by [35S]-GTPgammaS binding assay relative to control; format: functional, cell-based
Kappa-type opioid receptor (Homo sapiens), sequence (P41145 whole entry): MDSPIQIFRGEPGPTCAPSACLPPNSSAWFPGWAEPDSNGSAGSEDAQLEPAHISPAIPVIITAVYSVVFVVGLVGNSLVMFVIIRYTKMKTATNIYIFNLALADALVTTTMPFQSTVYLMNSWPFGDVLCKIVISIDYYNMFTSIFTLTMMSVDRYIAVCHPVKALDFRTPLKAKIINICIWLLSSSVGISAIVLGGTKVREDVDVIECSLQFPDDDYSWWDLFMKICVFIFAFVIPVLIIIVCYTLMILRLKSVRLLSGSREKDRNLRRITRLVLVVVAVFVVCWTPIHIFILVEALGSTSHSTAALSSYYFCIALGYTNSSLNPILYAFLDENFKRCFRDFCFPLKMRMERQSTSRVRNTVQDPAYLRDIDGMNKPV

Sigma non-opioid intracellular receptor 1, sequence (Q60492 whole entry): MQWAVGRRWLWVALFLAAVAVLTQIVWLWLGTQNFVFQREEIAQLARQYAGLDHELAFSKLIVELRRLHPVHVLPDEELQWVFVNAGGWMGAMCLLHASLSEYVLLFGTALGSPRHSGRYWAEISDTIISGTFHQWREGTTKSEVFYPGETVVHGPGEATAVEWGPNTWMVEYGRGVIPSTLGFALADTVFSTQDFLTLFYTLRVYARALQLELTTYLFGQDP
Delta-type opioid receptor, sequence (P33533 whole entry): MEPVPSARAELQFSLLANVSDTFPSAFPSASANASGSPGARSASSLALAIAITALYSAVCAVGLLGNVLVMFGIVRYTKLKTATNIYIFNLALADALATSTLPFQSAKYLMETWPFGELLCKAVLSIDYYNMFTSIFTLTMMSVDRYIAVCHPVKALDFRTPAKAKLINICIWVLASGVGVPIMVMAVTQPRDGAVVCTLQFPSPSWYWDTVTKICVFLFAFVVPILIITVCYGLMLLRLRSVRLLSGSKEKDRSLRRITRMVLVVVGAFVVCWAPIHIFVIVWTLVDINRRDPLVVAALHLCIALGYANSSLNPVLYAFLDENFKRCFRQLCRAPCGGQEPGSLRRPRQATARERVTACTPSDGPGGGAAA
Mu-type opioid receptor, sequence (P97266 whole entry): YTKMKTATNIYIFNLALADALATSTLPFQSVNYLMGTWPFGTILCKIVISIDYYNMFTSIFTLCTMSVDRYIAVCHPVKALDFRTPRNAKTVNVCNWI
T1 sequence (P41144 whole entry): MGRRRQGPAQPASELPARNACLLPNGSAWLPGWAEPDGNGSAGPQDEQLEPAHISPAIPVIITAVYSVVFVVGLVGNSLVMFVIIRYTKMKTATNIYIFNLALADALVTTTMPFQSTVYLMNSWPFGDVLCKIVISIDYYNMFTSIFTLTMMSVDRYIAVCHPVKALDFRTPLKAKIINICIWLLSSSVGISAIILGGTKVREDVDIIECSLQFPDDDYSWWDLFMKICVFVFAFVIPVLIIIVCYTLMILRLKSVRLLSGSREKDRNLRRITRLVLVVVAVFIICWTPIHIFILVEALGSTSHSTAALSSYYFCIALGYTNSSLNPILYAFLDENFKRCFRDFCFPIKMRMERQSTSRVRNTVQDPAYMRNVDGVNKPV

Row | SMILES | pKi [1] | pKi [2] | pKi (Mu-type opioid receptor) | pKi [3] | pKi [4] | pKi [5] | Activity [6] [%]
1 | COC(=O)N1CCC(NC(=O)Cc2ccc(Cl)c(Cl)c2)C([C@@H](C)N2CCCC2)C1 (stereo partly drawn) | 9.51 |  |  |  |  |  | 
2 | CCN1CC2OCCN(C(=O)Cc3ccc(Cl)c(Cl)c3)C2C(N2CCCC2)C1 (racemic) |  | < 6.00 | < 6.00 | 6.99 | 6.41 | 5.89 | 
3 | O=C(Cc1ccc(Cl)c(Cl)c1)N1CC2OCCN(C(=O)Cc3ccc(Cl)c(Cl)c3)C2C(N2CCCC2)C1 (racemic) |  |  |  | < 6.00 |  |  | 
4 | O=C(Cc1ccc(Cl)c(Cl)c1)N1CCOC2CN(Cc3ccccc3)CC(N3CCCC3)C21 (racemic) |  | 6.59 | 6.58 | < 6.00 | 6.01 | 6.04 | 
5 | O=C(Cc1ccc(Cl)c(Cl)c1)N1CCOC2CN(Cc3cccnc3)CC(N3CCCC3)C21 (racemic) |  | 6.18 | 6.20 | < 6.00 | 6.54 | < 6.00 | 
6 | O=C(Cc1ccc(Cl)c(Cl)c1)N1CCOC2CNCC(N3CCCC3)C21 (racemic) |  | < 6.00 | < 6.00 | < 6.00 | < 6.00 | 6.88 | 27
7 | CN1CC2OCCN(C(=O)Cc3ccc(Cl)c(Cl)c3)C2C(N2CCCC2)C1 (racemic) |  | < 6.00 | < 6.00 | < 6.00 | < 6.00 | 6.54 | 
8 | O=C1COC2CN(C(=O)Cc3ccc(Cl)c(Cl)c3)CC(N3CCCC3)C2N1 (racemic) |  | < 6.00 | < 6.00 | < 6.00 | < 6.00 | < 6.00 | 
9 | CCCCN1CC2OCCN(C(=O)Cc3ccc(Cl)c(Cl)c3)C2C(N2CCCC2)C1 (racemic) |  | < 6.00 | 6.30 | 6.50 | 6.72 | < 6.00 | 
10 | O=C(Cc1ccc(Cl)c(Cl)c1)N1CCOC2CN(C3CCCC3)CC(N3CCCC3)C21 (racemic) |  | 6.14 | 6.35 | 7.35 | 6.74 | < 6.00 | 
